Laboratory results from article PMC8624998, “Synthesis and Antiproliferative Evaluation of 3-Chloroazetidin-2-ones with Antimitotic Activity: Heterocyclic Bridged Analogues of Combretastatin A-4” (Pharmaceuticals, 2021).
Where two headings read alike, the source gives them in different places. Marks after values point to notes of the source that are not given here. Blank lines part the entries; values can stand above or below the molecule they belong to.

Tests used:
MCF-7 cells [1] = conditions: MCF-7, 72 h, previously reported compounds, cited from earlier work
MDA-MB-231 cells = assay: Cell viability assay, antiproliferative activity; type: cell-based; conditions: Homo sapiens; MDA-MB-231, 72 h; 10e and 11n results from NCI; read-out: Antiproliferative Activity IC50 MDA-MB-231, 72 h
From the text: Selected β-lactam compounds were next evaluated in the triple negative cell line MDA-MB-231 (Table 4). […] These cancers are difficult to treat since they are generally not responsive to hormone therapies such as the selective oestrogen receptor modulator (SERM) tamoxifen, or aromatase inhibitors such as anastrozole, or to the monoclonal antibody Herceptin, which targets the HER2 receptor. There are fewer treatment options available for TNBC compared with ER+, PR+ and HER2+ breast cancers and the prognosis is poorer. […]. The human breast carcinoma cell line MCF-7 was purchased from the European Collection of Animal Cell Cultures (ECACC). Triple negative breast cancer Hs578T cells and its invasive variant Hs578Ts(i)8 were a kind gift from Dr. Susan McDonnell, School of Chemical and Bioprocess Engineering, University College Dublin. U266 cells were a gift from Dr. Tony McElligott, School of Medicine, St James’s Hospital, Trinity College Dublin. HT-29 cells were purchased from the European Collection of Cell Cultures (originating from a human adenocarcinoma of the colon). The human breast carcinoma cell line MDA-MB-231 and the HL-60 cells derived from a patient with acute myeloid leukaemia were both obtained from ECACC (Salisbury, UK). The SW-480 cells were a kind gift from Dr. Brian Flood, School of Biochemistry and Immunology, Trinity College Dublin. HEK-293T (normal epithelial embryonic kidney cells) were cultured in Dulbecco’s Modified Eagle’s Medium (DMEM) with GlutaMAXTM-I in the absence of non-essential amino acids. Human breast cancer MCF-7 cells and multiple myeloma U266 cells were cultured in Minimum Essential Media (MEM) with GlutaMAX™-I, supplemented with 1% (v/v) non-essential amino acids, 10% 2(v/v) foetal bovine serum (FBS) and 1% (v/v) penicillin/streptomycin 5000 U/mL. MDA-MB-231 cells were maintained in DMEM supplemented with 10% (v/v) foetal bovine serum, 2 mM L-glutamine and 100 μg/mL penicillin/streptomycin (complete medium). Colon cancer HT-29 and SW-480 and triple negative breast cancer Hs578T and its invasive variant Hs578T8i were cultured in DMEM with GlutaMAX™-I, with the same supplement in the absence of non-essential amino acids. Leukaemia HL-60 cancer cells were cultured in Roswell Park Memorial Institute Media (RPMI-1640) with GlutaMAX™-I, supplemented with 10% FCS media, and 100 μg/mL penicillin/streptomycin as above. Cell numbers were monitored using a haemocytometer. Cell culture flasks were incubated in a humidified incubator (5% CO2/95% air) at 37 °C. All cell lines were sub-cultured three times per week with trypsinisation using TrypLE Express (1X) required for adherent cell lines.
(§1) . All stock solutions and serial dilution in ethanol/DMSO were stored at -20 °C. All cells were seeded at a density of 2.5 × 10^4 cells/mL in a 96-well plate (200 μL per well). The cells were incubated in a […] atmosphere at 37 °C for 24 h, then treated with test compound (2 μL of stock solutions per 200-microlitre well) in ethanol to obtain a concentration range of 1 nM–200 μM for the study. The plates were then re-incubated for a further 72 h. Control wells contained an equivalent volume of the vehicle ethanol or DMSO (1% v/v). MTT cell viability assay: The culture medium was removed, and the cells were washed with phosphate buffered saline (PBS, […]). MTT (dissolved in PBS, […]) was added to obtain a final concentration of MTT (1 mg/mL). Cells were incubated at 37 °C for 3 h in the dark. Solubilisation was commenced by the addition of DMSO ([…]) and the cells were maintained at 20 °C in the dark for 20 min before reading the absorbance to ensure complete colour diffusion. The absorbance value of control cells (no added compound) was set to 100% cell viability and absorbance versus cell density per well was determined to assess cell viability using Graph-Pad Prism software. […]

SW480 cells = assay: Cell viability assay, antiproliferative activity; type: cell-based, human; conditions: SW480, 10 μM
Description: […]. The corresponding values for 10e in these cell lines were 161 nM (HL-60), 55 nM (SW480) and 135 nM (HT-29). […] […]. SW480 colon cells expressed low levels of the UDP-glucuronosyltransferase (UGT) protein compared to expression levels in HT-29 cells. […] […].
(§2) The human breast carcinoma cell line MCF-7 was purchased from the European Collection of Animal Cell Cultures (ECACC). Triple negative breast cancer Hs578T cells and its invasive variant Hs578Ts(i)8 were a kind gift from Dr. Susan McDonnell, School of Chemical and Bioprocess Engineering, University College Dublin. U266 cells were a gift from Dr. Tony McElligott, School of Medicine, St James’s Hospital, Trinity College Dublin. HT-29 cells were purchased from the European Collection of Cell Cultures (originating from a human adenocarcinoma of the colon). The human breast carcinoma cell line MDA-MB-231 and the HL-60 cells derived from a patient with acute myeloid leukaemia were both obtained from ECACC (Salisbury, UK). The SW-480 cells were a kind gift from Dr. Brian Flood, School of Biochemistry and Immunology, Trinity College Dublin. HEK-293T (normal epithelial embryonic kidney cells) were cultured in Dulbecco’s Modified Eagle’s Medium (DMEM) with GlutaMAXTM-I in the absence of non-essential amino acids. Human breast cancer MCF-7 cells and multiple myeloma U266 cells were cultured in Minimum Essential Media (MEM) with GlutaMAX™-I, supplemented with 1% (v/v) non-essential amino acids, 10% 2(v/v) foetal bovine serum (FBS) and 1% (v/v) penicillin/streptomycin 5000 U/mL. MDA-MB-231 cells were maintained in DMEM supplemented with 10% (v/v) foetal bovine serum, 2 mM L-glutamine and 100 μg/mL penicillin/streptomycin (complete medium). Colon cancer HT-29 and SW-480 and triple negative breast cancer Hs578T and its invasive variant Hs578T8i were cultured in DMEM with GlutaMAX™-I, with the same supplement in the absence of non-essential amino acids. Leukaemia HL-60 cancer cells were cultured in Roswell Park Memorial Institute Media (RPMI-1640) with GlutaMAX™-I, supplemented with 10% FCS media, and 100 μg/mL penicillin/streptomycin as above. Cell numbers were monitored using a haemocytometer. Cell culture flasks were incubated in a humidified incubator (5% CO2/95% air) at 37 °C. All cell lines were sub-cultured three times per week with trypsinisation using TrypLE Express (1X) required for adherent cell lines.
as §1, with “software. AlamarBlue cell viability assay: Cells were seeded in 96-well plates (e.g., MCF-7, 5 × 10^3 cells/well) and (HT-29 cells, 1 × 10^3 cells/well) and (HL-60 cells, 1 × 10^4 cells/well) with a total volume per well of 200 µL. After 24 h, cells were treated in triplicate with serial dilutions of CA-4 or β-lactam analogues (0.001–100 μM), medium alone or vehicle (1% ethanol (v/v)).” for “software.”

MCF-7 cells [2] = assay: Cell viability assay (MTT/AlamarBlue), antiproliferative activity; type: cell-based, human; conditions: MCF-7, 72 h; for IC50: read-out: IC50 (MCF-7, 72 h)
From the text: […]. The introduction of the halogen substituent at C-3 was examined in an effort to investigate the effect on the activity of this substituent, and subsequently optimising the cytotoxic effects against MCF-7 human breast cancer cells.
as §2
as §1, with “software. AlamarBlue cell viability assay: Cells were seeded in 96-well plates (e.g., MCF-7, 5 × 10^3 cells/well) and (HT-29 cells, 1 × 10^3 cells/well) and (HL-60 cells, 1 × 10^4 cells/well) with a total volume per well of 200 µL. After 24 h, cells were treated in triplicate with serial dilutions of CA-4 or β-lactam analogues (0.001–100 μM), medium alone or vehicle (1% ethanol (v/v)).” for “software.”

MCF-7 cells [3] = assay: Lactate dehydrogenase (LDH) assay for cytotoxicity; type: cell-based; conditions: Homo sapiens, MCF7; MCF-7, compound concentration 10 μM, 24 h; read-out: Lactate Dehydrogenase assay: % cell lysis (cell death)
Description: The toxicity and selectivity of 10n towards normal cells was investigated in the non-tumourigenic cell line HEK-293T (normal human epithelial embryonic kidney cells). […] The cytotoxic effect of selected 3-chloro-β-lactams 10e, 10f, 10i, 10n and 3,3-dichloro-β-lactams 11e and 11n in MCF-7 cells was initially determined using the lactate dehydrogenase (LDH) assay.
The cytotoxicity of selected compounds was determined using the CytoTox 96 non-radioactive cytotoxicity assay (Promega Corporation, Madison, WI, USA). Briefly, MCF-7 cells were seeded in a 96-well plate (200 μL per well), at a density of 2.5 × 10^4 cells/mL, and incubated for 24 h. The cells were then treated with selected β-lactam compounds as described above for the cell viability assay. […] Supernatant (50 μL) was removed from each well to a 96-well plate. Reconstituted ‘CytoTox 96® Reagent (50 μL) was added to each well and the plate was placed in the dark at 20 °C for 30 min. ‘Stop solution’ (50 μL) was added to each well and the samples were analysed at 490 nm using a Dynatech MR5000 plate reader. The percentage cell death at 10 μM was calculated.

Structure (SMILES): COc1ccc(C2N(c3cc(OC)c(OC)c(OC)c3)C(=O)C2(Cl)Cl)cc1C (stereo not drawn) [Compound 11o]
- IC50 (MCF-7 cells [1]; footnote h): 747 ± 60 nM

Structure (SMILES): CCOc1ccc([C@@H]2N(c3cc(OC)c(OC)c(OC)c3)C(=O)C2(Cl)Cl)cc1 [Compound 11f]
- IC50 (MCF-7 cells [1]; footnote g): 164 ± 15 nM
- IC50 (MDA-MB-231 cells): 389 ± 50 nM

Structure (SMILES): COc1ccc(C2C(Br)C(=O)N2c2cc(OC)c(OC)c(OC)c2)cc1O (stereo not drawn) [Compound 16j, 3-Bromo-4-(3-hydroxy-4-methoxyphenyl)-1-(3,4,5-trimethoxyphenyl) azetidin-2-one]
- SW480 inhibition of cell viability (SW480 cells): 48%
- inhibition of cell viability at a concentration of 10 μM (MCF-7 cells [2]): 40% (10 μM) ^c,i

Structure (SMILES): COc1cc(N2C(=O)C(Cl)C2c2ccc(SC)cc2)cc(OC)c1OC (stereo not drawn) [Compound 10i]
- IC50 (MCF-7 cells [1]; footnote g): 73 ± 4 nM
- cytotoxicity at 10 µM (MCF-7 cells [3]): 3%

Structure (SMILES): COc1ccc(C2C(Cl)C(=O)N2c2cc(OC)c(OC)c(OC)c2)cc1Cl (stereo not drawn) [Compound 10o]
- IC50 (MCF-7 cells [1]; footnote h): 433 ± 50 nM

- IC50 (MCF-7 cells [2]; Homo sapiens, MCF7, 72 h): 1140 ± 300 nM
Structure (SMILES): CCOc1ccc(C2C(Br)C(=O)N2c2cc(OC)c(OC)c(OC)c2)cc1 (stereo not drawn) [Compound 16b, 3-Bromo-4-(4-ethoxyphenyl)-1-(3,4,5-trimethoxyphenyl)azetidin-2-one]
- SW480 inhibition of cell viability (SW480 cells): 50%

Structure (SMILES): COc1cc(N2C(=O)C(Cl)(Cl)C2c2ccc(SC)cc2)cc(OC)c1OC (stereo not drawn) [Compound 11i]
- IC50 (MCF-7 cells [1]; footnote g): 291 ± 30 nM

Structure (SMILES): COc1ccc(C(=O)c2cc(OC)c(OC)c(OC)c2)cc1O [Compound 3a, phenstatin, reference compound]
- cytotoxicity at 10 µM (MCF-7 cells [3]): 12%

- IC50 (MCF-7 cells [2]; Homo sapiens, MCF7, 72 h): 322 ± 40 nM
- melting point: 164 to 166 °C
Structure (SMILES): COc1cc(N2C(=O)C(Cl)(Cl)C2c2ccc3ccccc3c2)cc(OC)c1OC (stereo not drawn) [Compound 11k, 3,3-Dichloro-1-(3,4,5-trimethoxyphenyl)-4-(naphthalen-2-yl)azetidin-2-one]

- IC50 (MCF-7 cells [2]; Homo sapiens, MCF7, 72 h): 62300 ± 10200 nM
- melting point: 82 to 84 °C
Structure (SMILES): COc1cc(N2C(=O)C(Cl)(Cl)C2c2ccc(Oc3ccccc3)cc2)cc(OC)c1OC (stereo not drawn) [Compound 11g, 3,3-Dichloro-1-(3,4,5-trimethoxyphenyl)-4-(4-phenoxyphenyl)azetidin-2-one]

- IC50 (MCF-7 cells [2]; Homo sapiens, MCF7, 72 h): 18200 ± 1830 nM
- melting point: 150 to 152 °C
Structure (SMILES): COc1cc(N2C(=O)C(Cl)(Cl)C2c2ccc(Br)cc2)cc(OC)c1OC (stereo not drawn) [Compound 11c, 4-(4-Bromophenyl)-3,3-dichloro-1-(3,4,5-trimethoxyphenyl)azetidin-2-one]

- melting point: 133 to 134 °C
Structure (SMILES): CCOc1ccc(N2C(=O)C(Cl)(Cl)C2c2cc(OC)c(OC)c(OC)c2)cc1 (stereo not drawn) [Compound 13b, 3,3-Dichloro-1-(4-ethoxyphenyl)-4-(3,4,5-trimethoxyphenyl)azetidin-2-one]
- inhibition of cell viability at a concentration of 10 μM (MCF-7 cells [2]): 40% (10 μM)^c

- IC50 (MCF-7 cells [2]; Homo sapiens, MCF7, 72 h): 200 nM
- IC50 (MCF-7 cells [2]): 202 ± 15 nM
Structure (SMILES): COc1cc(N2C(=O)C(Cl)C2c2ccc3ccccc3c2)cc(OC)c1OC (stereo not drawn) [Compound 10k, 3-Chloro-1-(3,4,5-trimethoxyphenyl)-4-(naphthalen-2-yl)azetidin-2-one]
- IC50 (MDA-MB-231 cells): 205 ± 34 nM

- IC50 (MCF-7 cells [2]; Homo sapiens, MCF7, 72 h): 680 ± 160 nM
- melting point: 93 to 94 °C
Structure (SMILES): COc1ccc(C2C(Cl)C(=O)N2c2cc(OC)cc(OC)c2)cc1 (stereo not drawn) [Compound 14a, 3-Chloro-1-(3,5-dimethoxyphenyl)-4-(4-methoxyphenyl)azetidin-2-one]

- IC50 (MCF-7 cells [2]; Homo sapiens, MCF7, 72 h): 14700 ± 2260 nM
Structure (SMILES): COc1cc(N2C(=O)C(Cl)C2c2cccc3ccccc23)cc(OC)c1OC (stereo not drawn) [Compound 10j, 3-Chloro-1-(3,4,5-trimethoxyphenyl)-4-(naphthalen-1-yl)azetidin-2-one]
- cytotoxicity at 10 µM (MCF-7 cells [3]): 4%
